According to ChEMBL document CHEMBL1131669, “Synthesis of dihydroxanthone derivatives and evaluation of their inhibitory activity against acetylcholinesterase: unique structural analogs of tacrine based on the BCD-ring of arisugacin” (Bioorg Med Chem Lett, 1999):

Experiments:
[1] = In vitro inhibitory activity against acetylcholinesterase
Cholinesterase = Cholinesterase (Homo sapiens, UniProt P06276); experiment: In vitro inhibitory activity against Butyrylcholinesterase
Chain of Cholinesterase (P06276 whole entry): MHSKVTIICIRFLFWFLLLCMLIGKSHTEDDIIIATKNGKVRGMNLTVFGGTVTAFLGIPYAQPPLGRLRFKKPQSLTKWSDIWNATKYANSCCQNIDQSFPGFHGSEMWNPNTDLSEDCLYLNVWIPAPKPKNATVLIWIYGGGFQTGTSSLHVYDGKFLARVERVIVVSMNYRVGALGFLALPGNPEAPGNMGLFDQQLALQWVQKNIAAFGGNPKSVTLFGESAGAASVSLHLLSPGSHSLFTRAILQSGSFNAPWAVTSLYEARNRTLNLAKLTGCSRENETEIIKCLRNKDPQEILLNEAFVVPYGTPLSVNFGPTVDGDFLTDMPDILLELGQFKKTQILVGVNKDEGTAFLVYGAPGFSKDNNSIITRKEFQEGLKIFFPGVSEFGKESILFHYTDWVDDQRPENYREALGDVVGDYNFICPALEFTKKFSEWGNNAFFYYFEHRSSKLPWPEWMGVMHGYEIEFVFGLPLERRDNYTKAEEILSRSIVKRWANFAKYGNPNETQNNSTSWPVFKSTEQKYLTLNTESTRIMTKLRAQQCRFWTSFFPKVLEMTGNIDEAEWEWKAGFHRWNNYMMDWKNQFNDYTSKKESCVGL

Row | SMILES | IC50 [1] [nM] | IC50 (Cholinesterase) [nM]
1 | COC1C=CC[C@@H]2Oc3ccc(C)cc3C(=O)[C@]12C#N (stereo not given in full) | 790 | > 2000
2 | CO[C@@H]1C=CC[C@@H]2Oc3ccc(Cl)cc3C(=O)[C@@]21C#N | 240 | 270
3 | N#C[C@]12C(=O)c3ccccc3OC1C1C=CC2CC1 (stereo not given in full) | 580 | > 2000
4 | CO[C@@H]1C=CC[C@@H]2Oc3ccc(F)cc3C(=O)[C@@]21C#N | 280 | > 2000
5 | COC1C=C(O[Si](C)(C)C(C)(C)C)C[C@@H]2Oc3ccccc3C(=O)[C@]12C#N (stereo not given in full) | > 2000 | 350
6 | COC1=CC2CCC1C1Oc3ccccc3C(=O)[C@]21C#N (stereo not given in full) | > 2000 | > 2000
7 | CO[C@@H]1C=CC[C@@H]2Oc3ccccc3C(=O)[C@@]21C#N | 1120 | > 2000
8 | COC1CC(=O)C[C@@H]2Oc3ccccc3C(=O)[C@]12C#N (stereo not given in full) | 320 | > 2000
9 | CO[C@@H]1C=CC[C@@H]2Oc3ccc(Br)cc3C(=O)[C@@]21C#N | 1420 | 730
10 | COc1ccc2c(c1)C(=O)[C@]1(C#N)C(OC)C=CC[C@@H]1O2 (stereo not given in full) | 620 | 1410
